Experimental data: US11578056B2, “Solid forms comprising (S)-2-(2,6-dioxopiperidin-3-yl)-4-((2-fluoro-4-((3-morpholinoazetidin-1-yl)methyl)benzyl)amino)isoindoline-1,3-dione and salts thereof, and compositions comprising and methods of using the same” (Celgene Corporation, priority 2019, dated 2023)
pEC50, pIC50: −log10 of the molar value.

Tests used:
Test in all cases: Hematological cell line viability/apoptosis flow cytometry assay
Type in all cases: cell-based
BL-41 cell line = details: BL-41 (BL), 120 h
Procedure: (§1) Cell Proliferation and Viability Assay Using Hematological Cell Lines: The following exemplary anti-proliferative assay uses exemplary hematological cell lines in the following. The in vitro growth inhibitory activity of Compound 1 described herein was evaluated using a 384-well flow cytometry assay.
(§2) The cell lines were plated in 384-well flat bottom plates and assessed with increasing concentrations of compound ranging from 0.00015 to 10 μM or dimethyl sulfoxide (DMSO) control. The final concentration of DMSO was 0.1% (v/v). Following the addition of Compound 1 or DMSO and incubation for 120 hours, cell number and cell death were analyzed by flow cytometry (Attune®, Thermo Fisher) using Annexin V and the live-cell impermeant DNA dye, DRAQ7. Phosphatidylserine translocates from the inner layer to the outer layer of the cell membrane early in apoptosis and Annexin V binds to the exposed phosphatidylserine found on the surface of an apoptotic cell. The vital dye DRAQ7 is excluded by intact live cells and only stains cells that have died as a result of apoptosis or necrosis.
(§3) Flow cytometry data analysis was then performed using the Flow Jo_v10 software to determine the number of viable cells (Annexin V and DRAQ7 double negative staining cells) and percentage of apoptotic cells (Annexin V positive cells) for each condition. The live cell count for every concentration was normalized to the DMSO control (considered as 100%) to calculate the percentage of viable cells remaining after treatment and graphed using GraphPad Prism 7.03. The IC50 (50% inhibitory concentration) and Emax (maximum efficacy achieved) values were then calculated by performing nonlinear regression curve fitting using log(inhibitor) vs. normalized response—variable slope analysis on GraphPad Prism 7.03. Area under the curve (AUC) was calculated by performing area under curve analysis on GraphPad Prism 7.03. Similarly, for apoptosis analysis, the percentage of apoptosis combining both “early” (Annexin V positive and DRAQ7 negative) and “late” apoptosis (Annexin V and DRAQ7 positive) cell gates relative to DMSO was graphed using GraphPad Prism 7.03. The AUC, EC50 (concentration of compound that produces half-maximal apoptosis response) and Ymax (maximal percentage of apoptosis achieved) values from apoptosis curves were calculated by performing area under curve analysis and nonlinear regression curve fitting using log(agonist) vs. normalized response—Variable slope analysis on GraphPad Prism 7.03.
(§4) Dose-response proliferation curves for the panel of hematological cell lines and non-linear curve-fit regression were used to determine IC50, AUC, and Emax for % viable cells (Emax for viability varies between 100 at low doses and 0 at high doses, which corresponds to inhibition of all viable cells), and dose-response apoptosis curves were used to determine the EC50, AUC, and Ymax for % apoptosis (Ymax for apoptosis varies from 0 at low doses and 100 at higher doses which corresponds to death of all cells). Tumor cells were exposed to serial dilutions (0.00015 to 10 μM) of Compound 1 or dimethyl sulfoxide (DMSO) control for 5 days. Viability and apoptosis for all cell lines was determined by Annexin V/7-aminoactinomycin D (7-AAD) flow cytometry.

CII cell line = details: CII (CLL), 120 h
Procedure: as §1, §2, §3, §4

DB cell line = details: 120 h
Procedure: as §1, §2, §3, §4

DOHH2 cell line = details: DOHH2 (FL); 120 h
Procedure: as §1, §2, §3, §4

Karpas-299 cell line = details: Karpas-299 (TCL), 120 h
Procedure: as §1, §2, §3, §4

MDS-L cell line = details: 120 h
Procedure: as §1, §2, §3, §4

Mec1 cell line = details: Mec1 (CLL), 120 h
Procedure: as §1, §2, §3, §4

OCI-LY1 cell line = details: OCI-LY1 (DLBCL GCB); 120 h
Procedure: as §1, §2, §3, §4

OCI-LY18 cell line = details: OCI-LY18 (DLBCL); 120 h
Procedure: as §1, §2, §3, §4

RL cell line = details: RL (FL); 120 h
Procedure: as §1, §2, §3, §4

U-2940 cell line = details: U-2940 (DLBCL PMBL); 120 h
Procedure: as §1, §2, §3, §4

U-2973 cell line = details: 120 h
Procedure: as §1, §2, §3, §4

VAL cell line = details: VAL (DLBCL), 120 h
Procedure: as §1, §2, §3, §4

WSU-DLCL2 cell line = details: WSU-DLCL2 (DLBCL GCB); 120 h
Procedure: as §1, §2, §3, §4

[1] = Homo sapiens, read-out: % Viable Cells IC50

O=C1CC[C@H](N2C(=O)c3cccc(NCc4ccc(CN5CC(N6CCOCC6)C5)cc4F)c3C2=O)C(=O)N1 [Compound 1, (S)-2-(2,6-dioxopiperidin-3-yl)-4-((2-fluoro-4-((3-morpholinoazetidin-1-yl)methyl)benzyl)amino)isoindoline-1,3-dione]
% Viable Cells AUC (BL-41 cell line): 270.2
% Viable Cells Emax (BL-41 cell line): 96.65%
Apoptosis AUC (BL-41 cell line): 288.2
Apoptosis Ymax (BL-41 cell line): 79.5%
pEC50 (BL-41 cell line; Homo sapiens): 5.16
pIC50 (BL-41 cell line; [1]): 5.22
% Viable Cells AUC (CII cell line): 926.1
% Viable Cells Emax (CII cell line): 78.23%
Apoptosis AUC (CII cell line): 238.1
Apoptosis Ymax (CII cell line): 26.11%
pEC50 (CII cell line): 6.84
pIC50 (CII cell line; read-out: % Viable Cells IC50): < 5.00
% Viable Cells AUC (DB cell line): 941.4
% Viable Cells Emax (DB cell line): 89.46%
Apoptosis AUC (DB cell line): 80.31
Apoptosis Ymax (DB cell line): 11.62%
pIC50 (DB cell line; [1]): < 5.00
% Viable Cells AUC (DOHH2 cell line): 6.902
% Viable Cells Emax (DOHH2 cell line): 0.2066%
Apoptosis AUC (DOHH2 cell line): 923.9
Apoptosis Ymax (DOHH2 cell line): 95.1%
pEC50 (Karpas-299 cell line; Homo sapiens): 3.78
pIC50 (Karpas-299 cell line; [1]): 7.92
% Viable Cells AUC (Karpas-299 cell line): 283.7
% Viable Cells Emax (Karpas-299 cell line): 8.43%
Apoptosis AUC (Karpas-299 cell line): 14.51
Apoptosis Ymax (Karpas-299 cell line): 8.0%
% Viable Cells AUC (MDS-L cell line): 182.6
% Viable Cells Emax (MDS-L cell line): 146.7%
Apoptosis AUC (MDS-L cell line): 425.4
Apoptosis Ymax (MDS-L cell line): 100%
pEC50 (MDS-L cell line): 5.81
pIC50 (MDS-L cell line; read-out: % Viable Cells IC50): 7.29
pEC50 (Mec1 cell line; Homo sapiens): 6.68
pIC50 (Mec1 cell line; [1]): < 5.00
% Viable Cells AUC (Mec1 cell line): 866.5
% Viable Cells Emax (Mec1 cell line): 83.45%
Apoptosis AUC (Mec1 cell line): 302.4
Apoptosis Ymax (Mec1 cell line): 36.61%
% Viable Cells AUC (OCI-LY1 cell line): 22.77
% Viable Cells Emax (OCI-LY1 cell line): 1.037%
Apoptosis AUC (OCI-LY1 cell line): 852.3
Apoptosis Ymax (OCI-LY1 cell line): 90.09%
% Viable Cells AUC (OCI-LY18 cell line): 1.965
% Viable Cells Emax (OCI-LY18 cell line): 0.05973%
Apoptosis AUC (OCI-LY18 cell line): 965.2
Apoptosis Ymax (OCI-LY18 cell line): 97.44%
% Viable Cells AUC (RL cell line): 234.8
% Viable Cells Emax (RL cell line): 21.55%
Apoptosis AUC (RL cell line): 115.9
Apoptosis Ymax (RL cell line): 13.93%
% Viable Cells AUC (U-2940 cell line): 70.43
% Viable Cells Emax (U-2940 cell line): 5.192%
Apoptosis AUC (U-2940 cell line): 792.5
Apoptosis Ymax (U-2940 cell line): 82.19%
% Viable Cells AUC (U-2973 cell line): 853.4
% Viable Cells Emax (U-2973 cell line): 19.45%
Apoptosis AUC (U-2973 cell line): 391.9
Apoptosis Ymax (U-2973 cell line): 60.8%
% Viable Cells AUC (VAL cell line): 14.62
% Viable Cells Emax (VAL cell line): 0.9632%
Apoptosis AUC (VAL cell line): 936.7
Apoptosis Ymax (VAL cell line): 95.68%
pEC50 (VAL cell line): 9.22
pIC50 (VAL cell line; read-out: % Viable Cells IC50): 9.24
% Viable Cells AUC (WSU-DLCL2 cell line): 36.7
% Viable Cells Emax (WSU-DLCL2 cell line): 1.387%
Apoptosis AUC (WSU-DLCL2 cell line): 858.9
Apoptosis Ymax (WSU-DLCL2 cell line): 92.1%
